Laboratory results reported in PubChem BioAssay AID1996.
In brackets after ≈: the same amount, converted by molar mass.

settings: buffer; pH 7.4; 200.0 µM

Structure (SMILES)	solubility kinetic [µg/mL]
O=C(c1cc2ccccc2oc1=O)N1CCOCC1	> 38.9
Cc1cc(=O)oc2cc(OCCSCCN3CCCC3)ccc12	> 50
OC(COc1ccccc1)CN1CCCC1 (stereo not drawn)	> 33.2
CC(=O)N1CCN(c2ccc(C(N)=O)cc2[N+](=O)[O-])CC1	> 43.8
COCCNc1ncnc2c1nc1n2CCCC1	> 37.1
Cc1ccc(C(=O)NC(C)C2CC3CCC2C3)cc1 (stereo not drawn)	< 0.6
COc1cc(CN2CCC(CO)(CCOc3ccccc3)CC2)cc(OC)c1	52.2 (≈ 135 µM)
CN(Cc1ccccc1F)c1ncnc2sccc12	33.7 (≈ 123 µM)
Cc1cc2oc(=O)cc(CN3CCOCC3)c2c(C)c1Cl	0.9 (≈ 2.92 µM)
CC(=O)c1ccc(NC(=O)C2(c3ccccc3)CC2(Cl)Cl)cc1 (stereo not drawn)	19.6 (≈ 56.3 µM)
CN(Cc1nc(-c2cnccn2)no1)Cc1cccc2ccccc12	48.9 (≈ 148 µM)
COc1cc2nc(N3CCN(C(=O)c4ccco4)CC3)nc(N)c2cc1OC.Cl	61.9
CCSc1ccccc1-c1nc(-c2ccncc2)no1	5.1 (≈ 18 µM)
O=C(Nc1cc(Cl)ccn1)C1(c2ccccc2)CC1(Cl)Cl (stereo not drawn)	< 0.4
COc1ccc([N+](=O)[O-])cc1NC(=O)C1(c2ccccc2)CCOCC1	6.7 (≈ 18.8 µM)
c1ccc2sc(NC3=NCN(CC4CCCO4)CN3)nc2c1 (stereo not drawn)	42.1 (≈ 133 µM)
O=C(Nc1ccccc1F)OC1CN2CCC1CC2 (stereo not drawn)	> 39.6
CC(NC(=O)CCCC1CCCCC1)c1ccc(S(N)(=O)=O)cc1 (stereo not drawn)	> 52.9
COc1ccc(NC(=O)COc2ccc3c(c2)OCO3)cc1	39.5 (≈ 131 µM)
N#C/C(=C\c1cccnc1)c1nc2ccccc2[nH]1	27.4 (≈ 111 µM)
NC1=NC(=O)/C(=C\c2ccsc2)S1	28.6 (≈ 136 µM)
O=S(=O)(Nc1ccc(OC(F)(F)F)cc1)c1cccc2nonc12	46.1 (≈ 128 µM)
CC1CCCCN1C(C(=O)O)c1ccccc1.Cl (stereo not drawn)	> 40.5
CN(C)C(CNC1CC(C)(C)NC(C)(C)C1)c1cccc(F)c1 (stereo not drawn)	34.7 (≈ 108 µM)

Further lines, results first:

solubility kinetic [µg/mL]	Structure (SMILES)
> 41.1	Cc1cc(NC(=O)c2sc3ccccc3c2O)no1
32.1 (≈ 125 µM)	S=C(NCCc1ccccn1)Nc1ccccc1
10 (≈ 24.6 µM)	COc1ccc(-c2cc(C(=O)OCC(=O)NC3CC3)c3ccccc3n2)cc1OC
> 49.8	COc1cc2c(cc1OC)CN(C(=O)c1ccc([N+](=O)[O-])o1)CC2
> 35.7	Cc1cc(C(=O)Nc2ccc(F)cc2F)on1
17.9 (≈ 65.3 µM)	CC(C)NC(=O)c1cc(-c2ccc3c(c2)OCO3)on1
> 43.2	Cc1cc(=O)[nH]c(N2CCN(C(=O)c3ccco3)CC2)n1
7.4 (≈ 24.7 µM)	N#Cc1ccccc1OCC(=O)NC(=O)NCc1ccco1
2.9 (≈ 10.9 µM)	O=C(CC1CCCCC1)NCc1ccccc1Cl
6.8 (≈ 20.8 µM)	CCOc1c(O)ccc(/C=C2\SC(=S)NC2=O)c1[N+](=O)[O-]
0.8 (≈ 2.54 µM)	CC(=O)C1=C(C)NC2=C(C(=O)c3ccccc32)C1c1ccccc1 (stereo not drawn)
> 47.4	CC(=O)NN1C(=O)c2ccccc2NC1c1ccc([N+](=O)[O-])o1 (stereo not drawn)
> 45.8	Cc1cccc(C)c1NC(=O)c1cnn(-c2ccccc2)c1C
> 33.3	CCOc1ccc(-c2n[nH]c(=S)o2)cc1
15.5 (≈ 51.4 µM)	CCOC(=O)c1c(C)[nH]c(C(=O)NCc2ccccn2)c1C
47.6 (≈ 143 µM)	O=C(COc1ccc(Cl)cc1)NCCNC(=O)c1ccccn1
44.2 (≈ 136 µM)	CC1CCN(C(=O)CC(NC(N)=O)c2ccccc2Cl)CC1 (stereo not drawn)
> 62.8	CCOC(=O)c1c(C)[nH]c(C)c1C(=O)COC(=O)[C@@H](NC(=O)c1ccco1)C(C)C
> 47.2	O=C(CCc1nc2ccccc2s1)NCc1ccccc1F
4.4 (≈ 12.6 µM)	Cc1ccc(C)c(C(=O)COC(=O)c2c(-c3ccccc3)noc2C)c1
> 45.5	Cc1ccccc1-c1nnc(SCC(=O)N2CCCC2)o1
> 57.9	CC(C)Cn1c(SCC(=O)Nc2ccc(Cl)cc2F)nc(O)cc1=O
> 49.3	Cc1ccc(F)cc1NC(=O)CN1CCN(c2ccccn2)CC1
4 (≈ 11.6 µM)	CCCNc1nc2c(c(=O)[nH]c(=O)n2C)n1CCOc1ccccc1
